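Each compound was tested at five concentrations against cells in 96-well plates for 48 hours. GI50 = concentration required for 50% inhibition of growth.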 Activity calls are given as the source filed them. Rule as the data show it: active = GI50 up to about 1.1 µM and inactive = higher.
How the values were obtained:
Assay in all cases: inhibition of tumour cell growth, NCI panel, 48 h
[1] = system: U-251
[2] = system: SNB-19
[3] = system: 786-0
[4] = system: KM12
[5] = system: DU-145
[6] = system: MCF7
[7] = system: Malme-3M
[8] = system: OVCAR-3
[9] = system: BT-549
[10] = system: MOLT-4
[11] = system: PC-3
[12] = system: IGROV-1
[13] = system: HCT-15
[14] = system: OVCAR-8
[15] = system: UACC-62
[16] = system: MDA-MB-435
[17] = system: SN12C
[18] = system: CCRF-CEM
[19] = system: HOP-92
[20] = system: SW-620
[21] = system: SF-295
[22] = system: HCT-116
[23] = system: NCI-H460
[24] = system: NCI-H23
[25] = system: K562
[26] = system: Hs-578T
[27] = system: SNB-75
[28] = system: OVCAR-4
[29] = system: SK-MEL-2
[30] = system: NCI-H522
[31] = system: A549
[32] = system: M14
[33] = system: ACHN
[34] = system: TK-10
[35] = system: HT-29
[36] = system: RXF 393
[37] = system: NCI-H226
[38] = system: CAKI-1
[39] = system: A498
[40] = system: COLO 205
[41] = system: HOP-62
[42] = system: SF-268
[43] = system: SR
[44] = system: MDA-N
[45] = system: MDA-MB-231
[46] = system: LOX IMVI
[47] = system: SK-MEL-5
[48] = system: SF-539
[49] = system: OVCAR-5
[50] = system: SK-OV-3
[51] = system: EKVX
[52] = system: UACC-257
[53] = system: SK-MEL-28
[54] = system: T47D
[55] = system: NCI/ADR-RES
[56] = system: RPMI-8226

NC(Cc1nnn[nH]1)C(=O)O (stereo unspecified)
GI50 [1]: > 100 µM (inactive)
GI50 [2]: > 100 µM (inactive)
GI50 [3]: > 100 µM (inactive)
GI50 [4]: > 100 µM (inactive)
GI50 [5]: > 100 µM (inactive)
GI50 [6]: > 100 µM (inactive)
GI50 [7]: > 100 µM (inactive)
GI50 [8]: > 100 µM (inactive)
GI50 [9]: > 100 µM (inactive)
GI50 [10]: > 100 µM (inactive)
GI50 [11]: > 100 µM (inactive)
GI50 [12]: > 100 µM (inactive)
GI50 [13]: > 100 µM
GI50 [14]: > 100 µM (inactive)
GI50 [15]: > 100 µM (inactive)
GI50 [16]: > 100 µM (inactive)
GI50 [17]: > 100 µM (inactive)
GI50 [18]: > 100 µM (inactive)
GI50 [19]: > 100 µM (inactive)
GI50 [20]: > 100 µM (inactive)
GI50 [21]: > 100 µM (inactive)
GI50 [22]: > 100 µM (inactive)
GI50 [23]: > 100 µM (inactive)
GI50 [24]: > 100 µM (inactive)
GI50 [25]: > 100 µM (inactive)
GI50 [26]: > 100 µM (inactive)
GI50 [27]: > 100 µM (inactive)
GI50 [28]: > 100 µM (inactive)
GI50 [29]: > 100 µM (inactive)
GI50 [30]: > 100 µM (inactive)
GI50 [31]: > 100 µM (inactive)
GI50 [32]: > 100 µM (inactive)
GI50 [33]: > 100 µM (inactive)
GI50 [34]: > 100 µM (inactive)
GI50 [35]: > 100 µM (inactive)
GI50 [36]: > 100 µM (inactive)
GI50 [37]: > 100 µM (inactive)
GI50 [38]: > 100 µM (inactive)
GI50 [39]: > 100 µM (inactive)
GI50 [40]: > 100 µM (inactive)
GI50 [41]: > 100 µM (inactive)
GI50 [42]: > 100 µM (inactive)
GI50 [43]: > 100 µM (inactive)
GI50 [44]: > 100 µM (inactive)
GI50 [45]: > 100 µM (inactive)
GI50 [46]: > 100 µM (inactive)
GI50 [47]: > 100 µM (inactive)
GI50 [48]: > 100 µM (inactive)
GI50 [49]: > 100 µM (inactive)
GI50 [50]: > 100 µM (inactive)
GI50 [51]: > 100 µM (inactive)
GI50 [52]: > 100 µM (inactive)
GI50 [53]: > 100 µM (inactive)
GI50 [54]: > 100 µM (inactive)
GI50 [55]: > 100 µM (inactive)
GI50 [56]: > 100 µM (inactive)

— ChEMBL document CHEMBL1201862, “PubChem BioAssay data set” (2004)
